In patent publication US20260209297A1, “ANTIMICROBIAL PEPTIDES AND MODIFICATIONS THEREOF” (priority 2022, published 2026):
In brackets after ≈: the same amount, converted by molar mass. Where two headings read alike, the source gives them in different places. Residues, ends and D or L forms follow the SMILES beside them.

Tests used:
[1] = system: B. cinerea; assay: MIC antifungal assay in SFM culture media (with or without added salts); assay type: cell-based, Botrytis cinerea
[2] = system: F. graminearum; assay type: cell-based, Fusarium graminearum; conditions: in vitro, low cationic conditions
[3] = system: F. oxysporum; assay: MIC antifungal assay in SFM culture media; assay type: cell-based; conditions: in vitro, low cationic conditions
[4] = system: P. capsici; assay: MIC antifungal assay in SFM culture media; assay type: cell-based; conditions: in vitro, low cationic conditions
[5] = system: P. capsici; assay: Disease symptom reduction on tomato leaves; assay type: in vivo; conditions: compared with GMA4C_AC
Source text: Antifungal activity in planta.

[6] = system: C. parapsilosis; assay: MIC, CLSI M27/M38, half-strength potato dextrose broth; assay type: cell-based, Candida parapsilosis; conditions: C. parapsilosis ATCC 22019; Table 8
Method: MICs were determined at 24-72 hours.

[7] = system: Coccidioides sp.; assay type: cell-based; conditions: Table 8
[8] = system: Salmonella typhimurium var. Copenhagen; assay: Antibacterial growth inhibition in Mueller-Hinton media (OD600); assay type: cell-based; conditions: 37° C. overnight
[9] = system: Enterotoxigenic E. coli-F4; assay: as above; assay type: cell-based; conditions: 37° C. overnight
Method: Salmonella typhimurium var. Copenhagen, Enterotoxigenic E. coli-F4 and Listeria monocytogens (F5244) strains were grown overnight on an LB agar plate at 37_C. A small number of bacteria was scraped from the plate and added to Mueller-Hinton (MH) growth media and grown to log phase. Cells were diluted to 1-3×10^6 CFU/mL and 50 μl were added to each well in a polypropylene 96-well plate. Synthesized peptide GMA4C_V1A was diluted into 0.2% BSA, 0.01% acetic acid solution and added to the concentration of 0.2, 0.4, 0.80, 1.6, 3.25, 7.5, 15, 30 and 60 and 120 µM. Then, 50 μl of each peptide solution was added to 50 μl of bacterial cells. Plates were parafilmed and incubated at 37° C. overnight. The concentrations at which bacterial growth inhibition was determined based on the OD600 nm value at each concentration relative to the OD600 nm value of MH medium alone and that of bacterial growth in MH medium without any peptide.

[10] = system: L. monocytogenes F5244; assay: as above; assay type: cell-based, Listeria monocytogens; conditions: 37° C. overnight
[11] = system: Candida albicans; conditions: Table 8
[12] = system: Candida auris; conditions: Table 8
[13] = system: Aspergillus fumigatus; conditions: Aspergillus fumigatus AF293; Table 8

## CC[C@H](C)[C@H](NC(=O)[C@H](CCCNC(=N)N)NC(=O)[C@@H](NC(=O)[C@H](CS)NC(=O)[C@H](Cc1ccccc1)NC(=O)[C@H](CS)NC(=O)[C@H](CCCNC(=N)N)NC(=O)[C@H](CCCNC(=N)N)NC(=O)[C@H](CCCNC(=N)N)NC(=O)[C@H](Cc1ccccc1)NC(=O)CNC(=O)[C@H](CCCCN)NC(=O)[C@H](CS)NC(=O)[C@H](CCCNC(=N)N)NC(=O)CNC(=O)CN)[C@@H](C)O)C(=O)N[C@@H](CS)C(N)=O [GMA4C_V1A] (H-GGRCKGFRRRCFCTRIC-NH2; N-terminus assumed)
[1]; B. cinerea, in presence of 2 mM CaCl2, 6 μM
  fungal growth inhibition at 6 μM: inhibit fungal growth
[1]; B. cinerea, in presence of 100 mM NaCl or 100 mM KCl
  potency of activity relative to GMA4C_AC: 2 fold
[1]; in vitro, low cationic conditions
  antifungal activity relative to the wild-type GMA4C_AC control, B. cinerea: equivalent
[2]
  antifungal activity relative to the wild-type GMA4C_AC control, F. graminearum: equivalent
[3]
  antifungal activity relative to the wild-type GMA4C_AC control, F. oxysporum: equivalent
[4]
  antifungal activity relative to the wild-type GMA4C_AC control, P. capsici: equivalent
[5]
  reducing disease symptoms caused by P. capsici: more effective
[6]
  MIC values (μg/ml) 100%: 4 µg/mL (≈ 1.98 µM)
[7]; Coccidioides sp. Cocci1
  MIC values (μg/ml) 100%: 8 µg/mL (≈ 3.96 µM)
[7]; Coccidioides sp. Cocci2
  MIC values (μg/ml) 100%: 4 µg/mL (≈ 1.98 µM)
[7]; Coccidioides sp. DI17-143
  MIC values (μg/ml) 100%: 8 µg/mL (≈ 3.96 µM)
[8]
  Concentrations (in μM) at which growth inhibition was observed, S. Typhimurium var. Copenhagen: 15 to 60 µM
[9]
  Concentrations (in μM) at which growth inhibition was observed, Enterotoxigenic E. coli-F4: 7.5 to 60 µM
[10]
  Concentrations (in μM) at which growth inhibition was observed, L. monocytogenes F5244: 15 to 30 µM
[11]; Candida albicans ATCC 90028
  MIC values (μg/ml) 100%: 8 µg/mL (≈ 3.96 µM)
[11]; Candida albicans CA3
  MIC values (μg/ml) 100%: 8 µg/mL (≈ 3.96 µM)
[11]; Candida albicans SC5314
  MIC values (μg/ml) 100%: 8 µg/mL (≈ 3.96 µM)
[12]; Candida auris DI17-46
  MIC values (μg/ml) 100%: 8 µg/mL (≈ 3.96 µM)
[12]; Candida auris DI17-47
  MIC values (μg/ml) 100%: 8 µg/mL (≈ 3.96 µM)
[12]; Candida auris DI17-48
  MIC values (μg/ml) 100%: 8 µg/mL (≈ 3.96 µM)
[13]
  MIC values (μg/ml) 100%: 32 µg/mL (≈ 15.9 µM)
